In ChEMBL document CHEMBL4765292, “Flexible diaminodihydrotriazine inhibitors of Plasmodium falciparum dihydrofolate reductase: Binding strengths, modes of binding and their antimalarial activities” (Eur J Med Chem, 2020):

How the values were obtained:
Plasmodium falciparum [1] = test: Antimalarial activity against Plasmodium falciparum V1/S harboring DHFR N51I/C59R/S108N/I164L mutant infected in human erythrocytes assessed as reduction in [3H]-hypoxanthine incorporation pretreated for 20 hrs followed by [3H]-hypoxanthine addition measured after 20 hrs by radioactivity method; type: functional, organism-based; conditions: Erythrocyte
Vero = test: Cytotoxicity against African green monkey Vero cells assessed as reduction in cell viability incubated for 72 hrs by SRB assay; type: cell-based; conditions: Chlorocebus sabaeus
Plasmodium falciparum [2] = test: Antimalarial activity against Plasmodium falciparum W2 harboring DHFR N51I/C59R/S108N mutant infected in human erythrocytes assessed as reduction in [3H]-hypoxanthine incorporation pretreated for 20 hrs followed by [3H]-hypoxanthine addition measured after 20 hrs by radioactivity method; type: functional, organism-based; conditions: W2, Erythrocyte
[3] = Inhibition of Plasmodium falciparum DHFR expressed in Escherichia coli BL21 using DHF as substrate by spectrophotometric analysis
[4] = Inhibition of Plasmodium falciparum DHFR C59R/S108N/I164L mutant expressed in Escherichia coli BL21 using DHF as substrate by spectrophotometric analysis
[5] = Inhibition of Plasmodium falciparum DHFR N51I/C59R/S108N/I164L mutant expressed in Escherichia coli BL21 using DHF as substrate by spectrophotometric analysis
[6] = Inhibition of Plasmodium falciparum DHFR […] mutant expressed in Escherichia coli BL21 using DHF as substrate by spectrophotometric analysis
[7] = Inhibition of Plasmodium falciparum DHFR A16V/S108T mutant expressed in Escherichia coli BL21 using DHF as substrate by spectrophotometric analysis
[8] = Therapeutic index, ratio of IC50 for African green monkey Vero cells to IC50 for Plasmodium falciparum K1CB1 harboring DHFR […] mutant; type: toxicity; conditions: read-out: Ratio IC50
Plasmodium falciparum [9] = test: Antimalarial activity against Plasmodium falciparum CsI-2 harboring DHFR C59R/S108N/I164L mutant infected in human erythrocytes assessed as reduction in [3H]-hypoxanthine incorporation pretreated for 20 hrs followed by [3H]-hypoxanthine addition measured after 20 hrs by radioactivity method; type: functional, organism-based; conditions: CsI-2, Erythrocyte
Plasmodium falciparum [10] = test: Antimalarial activity against Plasmodium falciparum T9/94 RC17 harboring DHFR A16V/S108T mutant infected in human erythrocytes assessed as reduction in [3H]-hypoxanthine incorporation pretreated for 20 hrs followed by [3H]-hypoxanthine addition measured after 20 hrs by radioactivity method; type: functional, organism-based; conditions: T9/94 RC17, Erythrocyte
[11] = system: DHFR (human against Plasmodium falciparum DHFR N51I/C59R/S108N/I164L mutant); test: Selectivity index, ratio of Ki for human DHFR expressed in Escherichia coli BL21 to Ki for Plasmodium falciparum DHFR N51I/C59R/S108N/I164L mutant expressed in Escherichia coli BL21; type: toxicity; conditions: read-out: Ratio Ki
Plasmodium falciparum [12] = test: Antimalarial activity against Plasmodium falciparum K1CB1 harboring DHFR […] mutant infected in human erythrocytes assessed as reduction in [3H]-hypoxanthine incorporation pretreated for 20 hrs followed by [3H]-hypoxanthine addition measured after 20 hrs by radioactivity method; type: functional, organism-based; conditions: K1CB1, Erythrocyte
[13] = Therapeutic index, ratio of IC50 for African green monkey Vero cells to IC50 for Plasmodium falciparum V1/S harboring DHFR N51I/C59R/S108N/I164L mutant; type: toxicity; conditions: read-out: Ratio IC50
[14] = system: DHFR (human against Plasmodium falciparum DHFR); test: Selectivity index, ratio of Ki for human DHFR expressed in Escherichia coli BL21 to Ki for Plasmodium falciparum DHFR expressed in Escherichia coli BL21; type: toxicity; conditions: read-out: Ratio Ki
[15] = system: DHFR (human against Plasmodium falciparum DHFR double mutant); test: Selectivity index, ratio of Ki for human DHFR expressed in Escherichia coli BL21 to Ki for Plasmodium falciparum DHFR double mutant expressed in Escherichia coli BL21; type: toxicity; conditions: read-out: Ratio Ki
Plasmodium falciparum [16] = test: Antimalarial activity against Plasmodium falciparum TM4/8.2 infected in human erythrocytes assessed as reduction in [3H]-hypoxanthine incorporation pretreated for 20 hrs followed by [3H]-hypoxanthine addition measured after 20 hrs by radioactivity method; type: functional, organism-based
[17] = Therapeutic index, ratio of IC50 for African green monkey Vero cells to IC50 for Plasmodium falciparum TM4/8.2; type: toxicity; conditions: against Plasmodium falciparum TM4/8.2, read-out: Ratio IC50
[18] = Inhibition of Plasmodium falciparum DHFR N51I/C59R/S108N mutant expressed in Escherichia coli BL21 using DHF as substrate by spectrophotometric analysis

Row | Compound | IC50 (Plasmodium falciparum [1]) | IC50 (Vero) | IC50 (Plasmodium falciparum [2]) | Ki [3] | Ki [4] | Ki [5] | Ki [6] | Ki [7] | selectivity ratio [8] | IC50 (Plasmodium falciparum [9]) | IC50 (Plasmodium falciparum [10]) | selectivity ratio [11] | IC50 (Plasmodium falciparum [12]) | selectivity ratio [13] | selectivity ratio [14] | selectivity ratio [15] | IC50 (Plasmodium falciparum [16]) | selectivity ratio [17] | Ki [18]
1 | CC1(C)N=C(N)N=C(N)N1OCCCOc1ccc(Cl)cc1 | 23 nM | 170 nM | 2.1 nM | 0.6 nM | 0.9 nM | 1 nM | 0.9 nM | 1.2 nM | 89 | 3.9 nM | 0.24 nM | 29 | 1.9 nM | 7 | 49 | 32 | 0.28 nM | 607 | –
2 | Cc1ccc(C)c(NCCCON2C(N)=NC(N)=NC2(C)C)c1 | 350 nM | > 50000 nM | 43 nM | 0.8 nM | 1.5 nM | 3.8 nM | 1.1 nM | 4.1 nM | > 500 | 310 nM | – | 33 | 100 nM | > 143 | 155 | 113 | 26 nM | > 1920 | 1.4 nM
3 | CC1N=C(N)N=C(N)N1OCCCOc1ccc(Cl)cc1 (configuration not stated) | 820 nM | > 50000 nM | 120 nM | 0.4 nM | 1.4 nM | 1.8 nM | 0.7 nM | 1.9 nM | > 1720 | 380 nM | – | 64 | 29 nM | > 61 | 290 | 166 | 30 nM | > 1670 | 0.9 nM
4 | CC1(C)N=C(N)N=C(N)N1OCCCOc1ccc(F)cc1Cl | 3 nM | 21400 nM | 0.24 nM | 0.4 nM | 0.9 nM | 1.2 nM | 0.9 nM | 1.8 nM | 82300 | 3.1 nM | 0.28 nM | 31 | 0.26 nM | 7130 | 94 | 42 | 0.034 nM | 629000 | –
5 | CC1N=C(N)N=C(N)N1OCCCOc1ccc(F)cc1Cl (configuration not stated) | 290 nM | > 50000 nM | 33 nM | 0.4 nM | 1.6 nM | 1.3 nM | 0.7 nM | 1.8 nM | > 9620 | 47 nM | – | 70 | 5.2 nM | > 172 | 229 | 131 | 23 nM | > 2170 | 0.8 nM
6 | CC1N=C(N)N=C(N)N1OCCCOc1cccc(Cl)c1Cl (configuration not stated) | 210 nM | 5910 nM | 150 nM | 0.4 nM | 1.2 nM | 1.2 nM | 0.6 nM | 1.8 nM | 1000 | 62 nM | – | 16 | 5.9 nM | 28 | 49 | 33 | 1.3 nM | 4550 | 0.6 nM
7 | CN(CCCON1C(N)=NC(N)=NC1(C)C)c1ccc(Cl)cc1 | 420 nM | 45000 nM | 24 nM | 1.5 nM | 2 nM | 3.4 nM | 1.4 nM | 3.4 nM | 918 | 170 nM | 3.2 nM | 10 | 49 nM | 107 | 22 | 24 | 1.7 nM | 26500 | –
8 | CC1(C)N=C(N)N=C(N)N1OCCCSc1cccc(Cl)c1 | 77 nM | 3900 nM | 8.1 nM | 0.7 nM | 0.9 nM | 1 nM | 0.8 nM | 3.4 nM | 709 | 42 nM | 2.4 nM | 24 | 5.5 nM | 51 | 34 | 30 | 1.3 nM | 3000 | –
9 | CC1(C)N=C(N)N=C(N)N1OCCCc1ccccc1 | 90 nM | 7100 nM | 39 nM | 1.1 nM | 2.8 nM | 5 nM | 1.3 nM | 3.1 nM | 323 | 250 nM | – | 8 | 22 nM | 79 | 36 | 30 | 9.2 nM | 772 | 1.2 nM
10 | CC1(C)N=C(N)N=C(N)N1OCCSc1ccc(Cl)cc1 | 540 nM | 14000 nM | 24 nM | 0.3 nM | 1.8 nM | 3 nM | 0.8 nM | 1.5 nM | 378 | 32 nM | – | 8 | 37 nM | 26 | 84 | 32 | 3.5 nM | 4000 | 0.8 nM
11 | CCN(CC)CCCON1C(N)=NC(N)=NC1(C)C | 800 nM | > 50000 nM | 70 nM | 1 nM | 5.5 nM | 7.9 nM | 1.7 nM | 9.7 nM | > 1560 | 140 nM | – | 29 | 32 nM | > 63 | 230 | 135 | 24 nM | > 2080 | 2.1 nM
12 | CN(CCCON1C(N)=NC(N)=NC1(C)C)c1ccc(Cl)c(Cl)c1 | 290 nM | 33300 nM | 28 nM | 1.3 nM | 2.3 nM | 3.9 nM | 1 nM | 4 nM | 1040 | 140 nM | – | 10 | 32 nM | 115 | 30 | 39 | 0.52 nM | 64000 | 1.5 nM
13 | CC1(C)NC(N)=NC(=N)N1OCCCCOc1ccccc1 | 220 nM | 9800 nM | 46 nM | 0.8 nM | 1.7 nM | 2 nM | 1.3 nM | 3.2 nM | 297 | 220 nM | – | 23 | 33 nM | 45 | 57 | 35 | 2.9 nM | 3380 | 1.6 nM
14 | CC1(C)NC(N)=NC(=N)N1OCCc1ccccc1 | 720 nM | 12000 nM | 240 nM | 1.1 nM | 12 nM | 17 nM | 2 nM | 7.1 nM | 308 | 300 nM | – | 3 | 39 nM | 17 | 39 | 21 | 30 nM | 400 | 2.9 nM
